This passage reports Ki results from US7659394B2 (Pfizer Inc, priority 2004, dated 2010).

What is called pKi is the negative decadic logarithm of the Ki, by convention in mol/L.

pKi: −log10 of the molar value.

Assay [1] deals with T1, human norepinephrine transporter (Homo sapiens, UniProt P23975).
T1 construct: host or cells: HEK-293
Description: hNET receptor binding ([125I]-RTI-55 radioligand binding). To be noted: membranes of HEK-293 cells transfected with human norepinephrine transporter, IC50 converted to Ki by Cheng-Prusoff, read-out: hNET (Ki). In a few lines:
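Membranes from HEK-293 cells transfected with human NET. Nonspecific binding defined with 10 μM desipramine, duplicates. IC50 by nonlinear regression, converted to Ki with Cheng-Prusoff.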

Assay [2] addresses T2, human seritonin transporter (Homo sapiens, UniProt P31645).
T2 construct: host or cells: HEK-293
Description: hSERT receptor binding ([125I]-RTI-55 radioligand binding). To be noted: membranes of HEK-293 cells transfected with human seritonin transporter, IC50 converted to Ki by Cheng-Prusoff, read-out: SERT (Ki).

T2 sequence (P31645 whole entry): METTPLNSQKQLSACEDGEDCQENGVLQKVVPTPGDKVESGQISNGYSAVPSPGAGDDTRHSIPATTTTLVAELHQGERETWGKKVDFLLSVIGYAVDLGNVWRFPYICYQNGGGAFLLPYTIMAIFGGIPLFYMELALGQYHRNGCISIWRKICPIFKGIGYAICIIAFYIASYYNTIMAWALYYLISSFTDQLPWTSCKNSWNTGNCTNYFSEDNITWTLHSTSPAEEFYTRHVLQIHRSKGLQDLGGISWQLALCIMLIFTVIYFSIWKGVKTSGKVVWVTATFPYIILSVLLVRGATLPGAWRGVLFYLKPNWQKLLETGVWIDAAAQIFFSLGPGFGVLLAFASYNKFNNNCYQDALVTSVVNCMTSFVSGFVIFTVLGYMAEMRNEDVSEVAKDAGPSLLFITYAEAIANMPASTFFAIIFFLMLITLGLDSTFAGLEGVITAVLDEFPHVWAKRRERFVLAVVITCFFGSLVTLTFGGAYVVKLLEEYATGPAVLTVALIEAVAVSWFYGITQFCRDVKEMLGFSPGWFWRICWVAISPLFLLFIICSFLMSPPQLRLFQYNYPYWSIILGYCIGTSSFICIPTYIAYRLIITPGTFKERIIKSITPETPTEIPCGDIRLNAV
T1 sequence (P23975 whole entry): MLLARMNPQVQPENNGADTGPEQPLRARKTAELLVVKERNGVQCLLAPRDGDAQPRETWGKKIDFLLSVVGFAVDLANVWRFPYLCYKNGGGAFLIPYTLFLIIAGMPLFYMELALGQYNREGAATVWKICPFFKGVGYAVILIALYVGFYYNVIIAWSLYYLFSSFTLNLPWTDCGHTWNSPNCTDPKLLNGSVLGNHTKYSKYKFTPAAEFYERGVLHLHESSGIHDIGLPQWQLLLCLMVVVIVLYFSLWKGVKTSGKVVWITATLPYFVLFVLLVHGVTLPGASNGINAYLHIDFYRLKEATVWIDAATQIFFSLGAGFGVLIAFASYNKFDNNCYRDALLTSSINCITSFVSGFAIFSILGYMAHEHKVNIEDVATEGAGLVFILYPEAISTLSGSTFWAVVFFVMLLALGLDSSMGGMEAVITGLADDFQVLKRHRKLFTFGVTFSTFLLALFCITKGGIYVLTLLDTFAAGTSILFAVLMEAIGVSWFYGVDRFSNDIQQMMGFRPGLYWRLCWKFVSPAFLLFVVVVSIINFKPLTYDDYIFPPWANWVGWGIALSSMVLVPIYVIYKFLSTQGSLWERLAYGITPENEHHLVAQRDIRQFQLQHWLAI

Take `Fc1ccc(OC(c2ccccn2)[C@H]2CNCCO2)c(F)c1` (stereo partly drawn) [Example 87, (2R,3R)-2-[(2,4-Difluoro-phenoxy)-pyridin-2-yl-methyl]-morpholine]: the pKi was 5.54 in assay [1] and 6.02 in assay [2].
In the same order, the values of `Fc1ccc(Oc2ncccc2OC[C@H]2CNCCO2)cc1` [Example 89, (2R)-2-[2-(4-Fluoro-phenoxy)-pyridin-3-yloxymethyl]-morpholine] are 5.39 and not above 5.00.
The matching figures for `CCOc1ccccc1O[C@H](c1cccnc1)[C@H]1CNCCO1` [Example 90, (2R)-2-[(R)-(2-Ethoxy-phenoxy)-pyridin-3-yl-methyl]-morpholine]: 6.68 and 5.30.
In the same order, the values of `N#Cc1ccccc1O[C@@H](c1ccccc1)[C@@H]1CNCCO1` [Example 93, 2-[(S)-(2S)-morpholin-2-yl(phenyl)methoxy]benzonitrile] are 7.96 and 5.25.
As to `Fc1ccc(Cl)c(OC(c2ccccc2)[C@@H]2CNCCO2)c1` (stereo partly drawn) [Example 94, (2S)-2-[(2-chloro-5-fluorophenoxy)(phenyl)methyl]morpholine], the figures for the pKi in assay [1] and in assay [2] were 8.10 and 6.09, respectively.
The matching figures for `COc1cccc(F)c1OC(c1ccccc1)[C@@H]1CNCCO1` (stereo partly drawn) [Example 95, (2S)-2-[(2-fluoro-6-methoxyphenoxy)(phenyl)methyl]morpholine]: 8.52 and 5.47.
With `Fc1ccc(F)c(O[C@@H](c2ccccc2)[C@@H]2CNCCO2)c1` [Example 96, (2S)-2-[(S)-(2,5-difluorophenoxy)(phenyl)methyl]morpholine], the figures for the pKi in assay [1] and in assay [2] were 7.92 and 5.35, respectively.
In the same order, the values of `CCCc1ccccc1O[C@@H](c1ccccc1)[C@@H]1CNCCO1` [Example 97, (2S)-2-[(S)-phenyl(2-propylphenoxy)methyl]morpholine] are 8.05 and 6.33.
As for `CCc1ccccc1O[C@@H](c1ccccc1)[C@@H]1CNCCO1` [Example 98, (2S)-2-[(S)-(2-ethylphenoxy)(phenyl)methyl]morpholine], the pKi in assay [1] is 7.66; in assay [2] it was 5.94.
In the same order, the values of `c1ccc(COc2ccccc2O[C@@H](c2ccccn2)[C@@H]2CNCCO2)cc1` [Example 102, (2S)-2-[(S)-[2-(benzyloxy)phenoxy](pyridin-2-yl)methyl]morpholine] are 7.09 and 5.24.
Consider `CC(C)c1ccccc1O[C@@H](c1ccccn1)[C@@H]1CNCCO1` [Example 103, (2S)-2-[(S)-(2-isopropylphenoxy)(pyridin-2-yl)methyl]morpholine], for which the negative-log Ki (pKi) in assay [1] is 7.89; in assay [2], 5.22.
In the same order, the values of `CCOc1ccccc1O[C@@H](c1cccc(C)n1)[C@@H]1CNCCO1` [Example 107, (2S)-2-[(S)-(2-ethoxyphenoxy)(6-methylpyridin-2-yl)methyl]morpholine] are 7.57 and 5.43.
With `CCOc1ccccc1O[C@@H](c1cccc(OC)n1)[C@@H]1CNCCO1` [Example 108, (2S)-2-[(S)-(2-ethoxyphenoxy)(6-methoxypyridin-2-yl)methyl]morpholine], the pKi in assay [1] was 7.55; in assay [2] it was 6.17.
The matching figures for `COc1cccc([C@H](Oc2ccccc2OC(F)(F)F)[C@@H]2CNCCO2)n1` [Example 109, (2S)-2-{(S)-(6-methoxypyridin-2-yl)[2-(trifluoromethoxy)phenoxy]methyl}morpholine]: 7.80 and 6.44.
The matching figures for `c1ccc([C@H](Oc2cccc3c2CCC3)[C@@H]2CNCCO2)nc1` [Example 110, (2S)-2-[(S)-(2,3-dihydro-1H-inden-4-yloxy)(pyridin-2-yl)methyl]morpholine]: 8.07 and 6.45.
With `Fc1ccc(C(Oc2c(F)cccc2F)[C@H]2CNCCO2)cc1` (stereo partly drawn) [Example 111, (2R)-2-[(2,6-difluorophenoxy)(4-fluorophenyl)methyl]morpholine], the pKi is 6.98 in assay [1] and 6.63 in assay [2].
Regarding `Brc1ccccc1OC(c1ccccc1)[C@H]1CNCCO1` (stereo partly drawn) [Example 112, (2R)-2-[(2-bromophenoxy)(phenyl)methyl]morpholine], the pKi in assay [1] is 7.77; in assay [2] it was 6.98.
The matching figures for `Fc1cccc(Cl)c1O[C@@H](c1ccccc1)[C@@H]1CNCCO1` [Example 113, (2S)-2-[(S)-(2-chloro-6-fluorophenoxy)(phenyl)methyl]morpholine]: 7.82 and 7.15.
With `c1ccc(C(Oc2ccccc2C2CC2)[C@H]2CNCCO2)cc1` (stereo partly drawn) [Example 114, (2R)-2-[(2-cyclopropylphenoxy)(phenyl)methyl]morpholine], the figures for the pKi in assay [1] and in assay [2] were 7.46 and 7.12, respectively.
The matching figures for `Fc1ccc(Oc2ncccc2O[C@@H](c2ccccc2)[C@@H]2CNCCO2)cc1` [Example 116, (2S)-2-[(S)-{[2-(4-fluorophenoxy)pyridin-3-yl]oxy}(phenyl)methyl]morpholine]: 7.20 and 5.88.
In the same order, the values of `CCOc1ccccc1OC(C1CC1)[C@@H]1CNCCO1` (stereo partly drawn) [Example 118, (2S)-2-[cyclopropyl(2-ethoxyphenoxy)methyl]morpholine] are 5.94 and not above 5.00.
In the same order, the values of `Fc1ccc(O[C@@H](c2ccccc2)[C@@H]2CNCCO2)c(C2CC2)c1` [Example 119, (2S)-2-[(S)-(2-cyclopropyl-4-fluorophenoxy)(phenyl)methyl]morpholine] are 7.64 and 7.18.
For `Fc1cc(F)c(O[C@@H](c2ccccc2)[C@@H]2CNCCO2)c(C2CC2)c1` [Example 122, (2S)-2-[(S)-(2-cyclopropyl-4,6-difluorophenoxy)(phenyl)methyl]morpholine], the pKi was 7.96 in assay [1] and 7.36 in assay [2].
Consider `CCc1ncccc1O[C@@H](c1ccccc1)[C@@H]1CNCCO1` [Example 124, (2S)-2-[(S)-[(2-ethylpyridin-3-yl)oxy](phenyl)methyl]morpholine], for which the pKi in assay [1] is 7.52; in assay [2] it was 6.46.
`N#Cc1ccccc1O[C@@H](c1ccccn1)[C@@H]1CNCCO1` [Example 125, 2-[(S)-(2S)-morpholin-2-yl(pyridin-2-yl)methoxy]benzonitrile]: the results for the pKi in assay [1] and in assay [2] were 7.96 and not above 5.00, respectively.
In the same order, the values of `CC(C)Oc1ccccc1O[C@@H](c1ccccn1)[C@@H]1CNCCO1` [Example 126, (2S)-2-[(S)-(2-isopropoxyphenoxy)(pyridin-2-yl)methyl]morpholine] are 7.49 and not above 5.00.
Regarding `CCCc1ccccc1O[C@@H](c1ccccn1)[C@@H]1CNCCO1` [Example 127, (2S)-2-[(S)-(2-propylphenoxy)(pyridin-2-yl)methyl]morpholine], the pKi in assay [1] was 8.15; in assay [2], 5.20.
The matching figures for `c1ccc(Cc2ccccc2O[C@@H](c2ccccn2)[C@@H]2CNCCO2)cc1` [Example 128, (2S)-2-[(S)-(2-benzylphenoxy)(pyridin-2-yl)methyl]morpholine]: 7.96 and 5.48.
In the same order, the values of `FC(F)(F)Oc1ccccc1O[C@@H](c1ccccn1)[C@@H]1CNCCO1` [Example 129, (2S)-2-{(S)-pyridin-2-yl[2-(trifluoromethoxy)phenoxy]methyl}morpholine] are 8.10 and 5.35.
The matching figures for `Cc1ccc(C(C)C)c(O[C@@H](c2ccccn2)[C@@H]2CNCCO2)c1` [Example 130, (2S)-2-[(S)-(2-isopropyl-5-methylphenoxy)(pyridin-2-yl)methyl]morpholine]: 6.34 and 5.15.
`Cc1ncccc1O[C@@H](c1ccccc1)[C@@H]1CNCCO1` [Example 131, (2S)-2-[(S)-[(2-methylpyridin-3-yl)oxy](phenyl)methyl]morpholine]: the pKi in assay [1] was 6.41; in assay [2] it was 7.00.
Take `c1ccc([C@H](Oc2ccccc2C2CCCC2)[C@@H]2CNCCO2)nc1` [Example 132, (2S)-2-[(S)-(2-cyclopentylphenoxy)(pyridin-2-yl)methyl]morpholine]: the results for the pKi in assay [1] and in assay [2] were 7.74 and 5.21, respectively.
The matching figures for `FC(F)(F)c1ccccc1O[C@@H](c1ccccn1)[C@@H]1CNCCO1` [Example 133, (2S)-2-{(S)-pyridin-2-yl[2-(trifluoromethyl)phenoxy]methyl}morpholine]: 5.84 and 5.04.
The matching figures for `CCCc1ncccc1O[C@@H](c1ccccc1)[C@@H]1CNCCO1` [Example 135, (2S)-2-{(S)-phenyl[(2-propylpyridin-3-yl)oxy]methyl}morpholine]: 7.49 and 5.35.
`CCOc1ncccc1O[C@@H](c1ccccc1)[C@@H]1CNCCO1` [Example 137, (2S)-2-[(S)-[(2-ethoxypyridin-3-yl)oxy](phenyl)methyl]morpholine]: the pKi in assay [1] is 8.05; in assay [2], 5.74.
For `CCOc1ccccc1O[C@@H](c1ncccc1C)[C@@H]1CNCCO1` [Example 138, (2S)-2-[(S)-(2-ethoxyphenoxy)(3-methylpyridin-2-yl)methyl]morpholine], the pKi in assay [1] is 5.79; in assay [2] it was 5.42.
Take `Cc1cccnc1[C@H](Oc1ccccc1OC(F)(F)F)[C@@H]1CNCCO1` [Example 139, (2S)-2-{(S)-(3-methylpyridin-2-yl)[2-(trifluoromethoxy)phenoxy]methyl}morpholine]: the figures for the pKi in assay [1] and in assay [2] were 5.92 and 5.94, respectively.
The matching figures for `COc1cccc([C@H](Oc2ccccc2OC(C)C)[C@@H]2CNCCO2)n1` [Example 140, (2S)-2-[(S)-(2-isopropoxyphenoxy)(6-methoxypyridin-2-yl)methyl]morpholine]: 7.15 and 6.12.
